What was measured:
Acinetobacter pittii [1] = test: Ratio of MIC for Acinetobacter genomosp. 3 isolate 103 to MIC for Acinetobacter genomosp. 3 isolate 103 in presence of efflux pump inhibitor PAN; type: functional
Acinetobacter pittii [2] = test: Ratio of MIC for Acinetobacter genomosp. 3 isolate 103 to MIC for Acinetobacter genomosp. 3 isolate 103 in presence of efflux pump inhibitor CCCP; type: functional

SMILES: C[C@@H](O)[C@H]1C(=O)N2C(C(=O)O)=C(S[C@@H]3CN[C@H](C(=O)N(C)C)C3)[C@H](C)[C@H]12 [MEROPENEM]
- Ratio (Acinetobacter pittii [1]): 4
- Ratio (Acinetobacter pittii [2]): 3

— ChEMBL document CHEMBL1649124, “Genetic variability among ampC genes from acinetobacter genomic species 3” (Antimicrob Agents Chemother, 2009)
